Data set [1] relates to Huh7/Rep-Feo HCV replicon (HCV RNA replication). It counts as cell-based, Hepatitis C virus (strain HCV—N, genotype 1b). The text has this: Development of the Huh7/Rep-Feo replicon assay. […] This replicon was derived from a chimpanzee infectious clone (strain HCV—N, genotype 1b). In this replicon, the structural genes have been replaced by a reporter gene. The chimeric reporter gene Feo encodes the firefly luciferase protein fused in-frame with neomycin phosphotransferase. This Huh7/Rep-Feo cell supports high levels of autonomous HCV RNA replication because it was derived from the HCV—N strain, which carries an adaptive mutation in NSSA that confers highlevel replication in tissue culture. Furthermore, the level of luciferase correlates well with levels of HCV RNA production, so that luciferase can be used as a reliable surrogate marker for HCV replication. The use of luciferase as a reporter permits quantitative and highthroughput detection of HCV replication levels. The specific use of firefly luciferase makes this replicon especially well-suited for automation, because the luciferase reagent can be added directly to the cell culture system prior to signal detection without the need for cell lysis, washing, or aspiration.
HCV Replicon System-Primary Screening. […] Briefly, this replicon harbors a subgenomic HCV genotype 1b sequence, fused to firefly luciferase, stably replicating under neomycin selection. Cells were propagated in Dulbecco's Modified Eagle's medium (DMEM) containing 10% fetal bovine serum (FBS) supplemented with 1% penicillin-streptomycin, and 500 μg of Geneticin (Invitrogen Corp., Carlsbad, Calif.)/mL. Cells were cultured in a 37° C., 5% CO2-humidified incubator for all experiments. To decrease day-today variability in the assay, a large homogenous population of subconfluent cells was passaged so that a similar lot of cells could be used throughout the HTS assay.
Primary Screening-HTS. Information about the library of known bioactive compounds that was screened and the general automated HTS protocol is available at http://www.broad.harvard.edu/chembio/index.html (see FIG. 10 for list of primary HTS with known bioactives library). Based on the results of optimization experiments in the 384-well plate format, the general HTS protocol was adapted as follows. Unless otherwise indicated, cells were incubated at all times in a humidified environment with 5% CO2 at 37° C. The assay was initiated by plating 30 μL of medium containing 2000 cells/well into white 384-well opaque-bottom plates (Nunc, Rochester, N.Y.) using an automated plate filler (Bio-Tek uFiller; Winsooki, Vt.) and allowing the cells to adhere for 24 hours. One hundred nL of compound stock solutions in DMSO was transferred from stock plates into the 384-well assay plates using an automated pin-based compound transfer robot (CyBio CyBi-Well vario; Woburn, Mass.). The final compound concentration in each well was estimated to be approximately 10-50 μM, with most compounds at 33 μM. The wells contained 0.33% DMSO by volume. The cells were then incubated for another 48 hours. The luminescent signal from each plate was detected using an automated plate reader (Perkin-Elmer Envision 1; Wellesley, Mass.). This screen was performed in duplicate. For negative controls, entire DMSO-treated control plates were employed, in addition to DMSO-only control wells that were incorporated into each compound assay plate. The cells were assayed for luciferase activity using the Bright-Glo Luciferase assay system (Promega), following the manufacturer's instructions. As a counter-screen, cell viability was assessed using the CellTiterGlo Luminescent cell viability assay (Promega) following the manufacturer's instructions.
Computational Data Analysis-Primary Screening. For each replicate, a mock-treatment distribution based on the total population of mock (DMSO) controls in that replicate was built (FIG. 11).

Data set [2] concerns OR6 cells harboring full-length genotype 1b HCV replicon ORN/C-5B/KE (HCV RNA replication). The experiment in a line: microbe, parasite or virus in culture. It counts as cell-based, Hepatitis C virus (strain HCV—O. The settings on record: 48 hours; for antiviral activity (in words): OR6 full-length replicon. The text has this:
HCV Replicon System-Secondary Assays. For validation, OR6 cells stably harboring the full-length genotype 1 replicon, ORN/C-5B/KE9 were used to examine compound activity in a more authentic viral polyprotein context. This replicon was derived from the 1B-2 strain (strain HCV—O, genotype 1b), in which the Renilla luciferase gene is introduced as a fusion protein with neomycin to facilitate the monitoring of HCV replication. This construct contains a tissue culture adaptive mutation in the NS3 region. Cells were cultured in an identical manner to the Huh7/Rep-Feo cells.
(§1) Secondary Assays-Hit Validation. Several hits from primary HTS, as well as functionally related compounds, were purchased from Sigma (St. Louis, Mo.), Calbiochem (San Diego, Calif.), and Microsource (Gaylordsville, Conn.). […] Ten mM of stock solutions of the individual compounds to be tested was prepared in the appropriate solvent (DMSO, ethanol, or H2O, according to the manufacturer's information) and stored at −20° C. Cells were seeded into 96-well plates at a density of 2000 cells/well in 100 μL of medium. The cells were incubated for 24 hours at 37° C. to obtain the optimal level of adherence. Solutions of candidate hit compounds were added to wells to achieve final concentrations of 0.1, 1, 10, 50, and 100 μM. The final concentration of DMSO or ethanol in every well was 1% or less by volume. Mock solutions were used as a negative control. PEG-IFN and ribavirin were used as positive controls at various concentrations, alone and in combination. The plates were then incubated at 37° C. with 5% CO2 for 48 hours before they were analyzed. Luminescent signal was generated using the Renilla luciferase assay kit (Promega) according to the manufacturer's instructions. Signal was then detected using a LumiCount (Packard BioScience Company) luminometer. Cell viability was assessed using CellTiter-Glo (Promega), following the manufacturer's instructions. All experiments were performed in triplicate.
(§2) Secondary Assays-Data Analysis. Values were presented as a percentage of mock treated control, which was arbitrarily set at 100%. Data were expressed as the mean (±) SD. […] Synergy calculations were performed using CalcuSyn (Biosoft; Cambridge, England).
HCV Replicon System—Secondary Assays: For replicon validation, OR6 cells stably harboring the full-length genotype 1 replicon, ORN/C-5B/KE were used (Burke J. Am. Chem. Soc. (2004) 126:14095-14104). This replicon was derived from the 1B-2 strain (strain HCV—O, genotype 1b), in which the Renilla luciferase gene is introduced as a fusion protein with the Neomycin resistance cassette to facilitate the monitoring of HCV replication. This construct contains a tissue culture adaptive mutation in the NS3 region. Cells were cultured in an identical manner to the Huh7/Rep-Feo cells.
(§3) Secondary Assays—Hit Validation: 10 mM of stock solutions of the individual compounds to be tested were prepared in DMSO and stored at −20° C. Cells were seeded into 96-well plates at a density of 2,000 cells/well in 100 μl of medium. The cells were incubated for 24 hours at 37° C. to obtain the optimal level of adherence. Solutions of candidate hit compounds were added to wells to achieve varying final concentrations between 0.01 and 100 μM. The final concentration of DMSO or ethanol in every well was 1% or less by volume. Mock solutions were used as a negative control. Peginterferon-alfa-2b (PEG-Intron; Schering Corp.; Kenilworth, N.J.) and ribavirin (Sigma; St. Louis, Mo.) were used as positive controls at various concentrations, alone and in combination. The plates were then incubated at 37° C. with 5% CO2 for 48 hours before they were analyzed. Luminescent signal was generated using the Renilla luciferase assay kit (Promega; Madison, Wis.) according to the manufacturer's instructions. Signal was then detected using a LumiCount™ (Packard BioScience Company; Downers Grove, Ill.) luminometer.

In another data set the test system is OR6 cells. Kind of data set: Secondary assay cell viability (CellTiter-Glo). The settings on record: 48 hours. How it is done: as §1, §2
as §3, with “luminometer. Cell viability was assessed using CellTiter-Glo (Promega; Madison, Wis.), following the manufacturer's instructions. All experiments were performed in triplicate. Values were presented as a percentage of mock treated control, which was arbitrarily set at 100%. Data were expressed as the mean±SD.” for “luminometer.”
Secondary Assays—Data Analysis: Values were presented as a percentage of mock treated control, which was arbitrarily set at 100%. Data were expressed as the mean±SD.
A general note: In ATP-based viability assays light output follows the ATP content of the culture.

Read-outs that look alike come from different tables or passages of the source.

Broadly, the IC50 is the point on the concentration scale where inhibition reaches its midpoint.

As for `Clc1cccc(Nc2nnc(-c3ccccc3)c3ccccc23)c1` [MY-5445], the “primary screen hit result (in words)” value in data set [1] (known bioactives library, approximately 10-50 μM, most at 33 μM) is listed as “Antiviral”. The “antiviral activity (in words)” value in data set [2] is reported as “decreased the luciferase signal in a dose-related manner”. The “cytotoxicity (in words)” value in the data set on OR6 cells is listed as “significant cytotoxicity”.
With `CC[C@H](C)C(=O)O[C@H]1CCC=C2C=C[C@H](C)[C@H](CC[C@@H]3C[C@@H](O)CC(=O)O3)[C@H]21` [Mevastatin, mevastatin], the “antiviral activity (in words)” value in data set [2] is on record as “weakly inhibitory”. Further, the “cytotoxicity (in words)” value in the data set with OR6 cells was “not cytotoxic”.
Turning to `C[S+]([O-])c1ccc(-c2nc(-c3ccncc3)c(-c3ccc(F)cc3)[nH]2)cc1` (stereo not drawn) [SB 203580], the “primary screen hit result (in words)” value in data set [1] is “Antiviral”. Further, the “antiviral activity (in words)” value in data set [2] was “antiviral activity at a concentration of 10 μM”. In the data set with OR6 cells, the “cytotoxicity (in words)” value is listed as “cytotoxicity at higher concentrations”.
As to `O=C1[C@@]2(CO)C=C(I)C(CC2c2ccccc2)[C@@]12CO2` (stereo partly drawn) [SM_A14B5], the half-maximal inhibitory concentration (IC50) in data set [2] (Hepatitis C virus, OR6, 48 h, read-out: IC50 (HCV RNA replication, luciferase), OR6 full-length genotype 1b replicon) is about 3.5 µM. In the data set on OR6 cells, the “concentrations at which cytotoxic effects were exhibited” value is listed as “above 30 μM”.
As for `Cc1c(C)c2c(c(C)c1O)CCC(C)(COc1ccc(CC3SC(=O)NC3=O)cc1)O2` (stereo not drawn) [Troglitazone, troglitazone], the “concentrations at which cytotoxic effects were exhibited” value in the data set with OR6 cells is at least 50 µM.
Regarding `COc1ccc2cc1Oc1ccc(cc1)C[C@H]1c3cc(c(OC)cc3CCN1C)Oc1c(OC)c(OC)cc3c1[C@H](C2)N(C)CC3` [tetrandrine], the “cytotoxicity (in words)” value with OR6 cells was “cytotoxicity”.

For the origin of these results see patent US20120094939A1, “ANTI-VIRAL COMPOUNDS, COMPOSITIONS AND METHODS” (priority 2007, published 2012).
